Reference: patent publication US11104630B2, “Synthesis of mono-chlorinated acetophenone” (SIEGFRIED AG, priority 2017, dated 2021)

Assay: Solubility of the starting material in the solvent
Type: physicochemical
Details: solvent MTBE, 20° C., until clear solution
Experimental: Solubility of the Starting Material in the Solvent
To 1 g of HAP is added 5 ml of solvent. The mixture is stirred in a water bath at 20° C. The solvent is further slowly added under stirring until a clear solution appears.
The amount of used solvent is noted.

## CC(=O)c1cccc(O)c1 [HAP, 3-hydroxy-acetophenon]
  Solvent in ml per g HAP: 9 ml per g HAP
